Experimental data published in patent US6492174B1, “Methods of initiating embryogenic cultures in plants” (Institute of Paper Science & Technology, priority 2000, dated 2002).
Like-named read-outs stand apart in the source and are kept apart here.

What was measured:
[1] = system: Loblolly pine megagametophytes
Experimental: As in Example 9, the explants in this experiment were megagametophytes, containing Stage 2-4 somatic embryos, excised from the open pollinated summer cones of four different genotypes of Loblolly pine. Megagametophytes were isolated as in Example 4 and put on initiation media #889 (Table 47). The experiment consisted of three replications per treatment, per cone collection. Replications consisted of ten explants in adjacent wells on a single well plate. Plates were wrapped in […] and incubated in the dark at 23-24° C.
Explants were cultured on solid media under atmospheres containing three levels of oxygen: normal air (21% oxygen), 30% oxygen and 50% oxygen. All oxygen treatments were applied at either normal atmospheric pressure or under an elevated pressure of 1.5 atmospheres.
After eight weeks, extrusion and initiation were scored, as described in Example 3.

loblolly pine = settings: silver nitrate at about 29-59 μM; cited from earlier work
[2] = genotype 5-1036, 30% Oxygen + Pressure
[3] = genotype 5-1036, 50% Oxygen + Pressure
[4] = genotype 11-1057, 30% Oxygen + Pressure
[5] = genotype 11-1057, 50% Oxygen + Pressure
[6] = genotype 18-120, 30% Oxygen + Pressure
[7] = genotype 18-120, 50% Oxygen + Pressure
[8] = genotype 18-1212, 30% Oxygen + Pressure
[9] = genotype 18-1212, 50% Oxygen + Pressure

Q: Which results are given for O=O [Oxygen]?
A: % Megagametophytes Extruding ([1]; Total, 30% Oxygen): 45.3%; % Megagametophytes Initiating ([1]; Total, 30% Oxygen): 5.9%; % Megagametophytes Extruding ([1]; Total, 30% Oxygen + Pressure): 53.2%; % Megagametophytes Initiating ([1]; Total, 30% Oxygen + Pressure): 7.6%; % Megagametophytes Extruding ([1]; Total, 50% Oxygen): 49.8%; % Megagametophytes Initiating ([1]; Total, 50% Oxygen): 11.1%; % Megagametophytes Extruding ([1]; Total, 50% Oxygen + Pressure): 56.9%; % Megagametophytes Initiating ([1]; Total, 50% Oxygen + Pressure): 8.6%; % Megagametophytes Extruding ([1]; genotype 5-1036, 30% Oxygen): 57.5 (3.8) %; % Megagametophytes Initiating ([1]; genotype 5-1036, 30% Oxygen): 3.3 (3.3) %; % Megagametophytes Extruding [1, 2]: 73.3 (8.8) %; % Megagametophytes Initiating [1, 2]: 13.3 (3.3) %; % Megagametophytes Extruding ([1]; genotype 5-1036, 50% Oxygen): 50.0 (10.0) %; % Megagametophytes Initiating ([1]; genotype 5-1036, 50% Oxygen): 20.0 (5.8) %; % Megagametophytes Extruding [1, 3]: 83.3 (3.3) %; % Megagametophytes Initiating [1, 3]: 13.3 (3.3) %; % Megagametophytes Extruding ([1]; genotype 11-1057, 30% Oxygen): 30.0 (15.3) %; % Megagametophytes Initiating ([1]; genotype 11-1057, 30% Oxygen): 10.0 (0.0) %; % Megagametophytes Extruding [1, 4]: 34.4 (16.1) %; % Megagametophytes Initiating [1, 4]: 6.7 (67) %; % Megagametophytes Extruding ([1]; genotype 11-1057, 50% Oxygen): 53.3 (3.3) %; % Megagametophytes Initiating ([1]; genotype 11-1057, 50% Oxygen): 13.0 (3.3) %; % Megagametophytes Extruding [1, 5]: 43.3 (3.3) %; % Megagametophytes Initiating [1, 5]: 10.0 (5.8) %; % Megagametophytes Extruding ([1]; genotype 18-120, 30% Oxygen): 33.3 (19.2) %; % Megagametophytes Initiating ([1]; genotype 18-120, 30% Oxygen): 0.0 (0.0) %; % Megagametophytes Extruding [1, 6]: 16.7 (8.8) %; % Megagametophytes Initiating [1, 6]: 6.7 (6.7) %; % Megagametophytes Extruding ([1]; genotype 18-120, 50% Oxygen): 40.0 (10.0) %; % Megagametophytes Initiating ([1]; genotype 18-120, 50% Oxygen): 0.0 (0.0) %; % Megagametophytes Extruding [1, 7]: 30.8 (3.6) %; % Megagametophytes Initiating [1, 7]: 4.2 (4.2) %; % Megagametophytes Extruding ([1]; genotype 18-1212, 30% Oxygen): 60.3 (8.0) %; % Megagametophytes Initiating ([1]; genotype 18-1212, 30% Oxygen): 10.4 (5.8) %; % Megagametophytes Extruding [1, 8]: 88.4 (6.5) %; % Megagametophytes Initiating [1, 8]: 3.7 (3.7) %; % Megagametophytes Extruding ([1]; genotype 18-1212, 50% Oxygen): 56.0 (3.6) %; % Megagametophytes Initiating ([1]; genotype 18-1212, 50% Oxygen): 11.2 (0.7) %; % Megagametophytes Extruding [1, 9]: 70.0 (15.3) %; % Megagametophytes Initiating [1, 9]: 10.0 (5.8) %

Q: Which embryogenic culture initiation (loblolly pine) does the source give for O=[N+]([O-])[O-].[Ag+] [silver nitrate] here?
A: improved embryogenic culture initiation
